Measurements published in PubChem BioAssay (NCI).
Values joined by “and” are separate entries in the source; they are usually repeats but may differ in a detail not shown here. Equal entries are not always repeated.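 Protocol summary: plate cells (96-well), add compound at 5 concentrations, incubate 48 h, interpolate endpoints linearly. GI50 = concentration required for 50% inhibition of growth. TGI: total growth inhibition.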 Where a SMILES comes first, the peptide text is derived from it. Bridges are numbered along the chain shown (N, C = ends). [ ]: non-standard residue; d: D form. The star is where a group is joined. Phe(3,5-F2) = N[C@@H](Cc1cc(F)cc(F)c1)C(=O)O; Pro(4R-Me) = C[C@H]1CN[C@H](C(=O)O)C1; aThr = C[C@H](O)[C@H](N)C(=O)O; Pip = O=C(O)[C@@H]1CCCCN1; X7 = CCC/C=C/C=C/C(=O)*

Test system: MDA-MB-468 breast
Assay: NCI-60 cell line screen, 48 h

In the case of `CN1CCN(C(=O)OCc2nc3c(N4CCOCC4)nc(-c4ccccc4)nc3n2C)CC1`, the GI50 is reported as 558 nM and the TGI is reported as 2020 nM.
`C#CCN(C)CCCOc1ccc(NCc2ccc(C(=O)NO)cc2)cc1Cl` showed a GI50 of 1700 nM and a TGI of 8140 nM.
Compound `O=C(NCCNc1nccc(-c2c(-c3ccc(F)cc3)nc3sccn23)n1)Nc1cccc(C(F)(F)F)c1` has a GI50 of 2140 nM and a TGI of 7460 nM.
`CO[C@@H]1[C@H](N(C)C(=O)c2ccccc2)C[C@@H]2O[C@]1(C)n1c3ccccc3c3c4c(c5c6ccccc6n2c5c31)C(=O)NC4=O` was tested, and the GI50 was 335 nM and the TGI was greater than 100000 nM.
In the case of `N#C/C(=C\c1ccc([N+](=O)[O-])cc1)n1nnc2cc(F)c(F)cc21`, the GI50 is reported as 1510 nM and the TGI is reported as 3530 nM.
For `O=C(/C=C/c1cccnc1)c1ccccc1`, the GI50 was 8220 nM and the TGI was 22000 nM.
For `COc1ncnn2ccc(-c3cnc4nc(C)n(Cc5nnc(C(C)F)o5)c4c3)c12` (configuration not stated), the GI50 was 51 nM and the TGI was 309 nM.
`Cc1cc(C)c2c(=O)cc(-c3ccccc3)[nH]c2c1` showed a GI50 of 3790 nM and a TGI of 25500 nM.
`COC(=O)Nc1nc2ccc(C(=O)C3CC3)cc2[nH]1` gave a GI50 of 247 nM and a TGI of 1480 nM.
In the case of `CCN1C2=C(SC(=S)C1=C1SC(C(=O)c3ccccc3)=C(C(=O)c3ccccc3)S1)SC(=Nc1ccccc1)C2=O`, the GI50 is reported as greater than 50400 nM and the TGI is reported as greater than 100000 nM.
With `O=C1NC(=N[C@@H]2C[C@H]2c2ccccc2)S/C1=C\c1ccc2ncccc2c1` the GI50 was 872 nM and the TGI was 5850 nM.
`COc1cc2cc(Oc3ccc(NC(=O)Nc4ccc(F)c(C(F)(F)F)c4)cc3)c(C)nc2cc1OCCN1CCOCC1` showed a GI50 of 451 nM and a TGI of 10400 nM.
Compound `Nc1nc(N)c2cc(Sc3ccc(Cl)cc3)ccc2n1` has a GI50 of 1150 nM and a TGI of 2710 nM.
`Nc1ncnc2occ(-c3ccc(NC(=O)Nc4cc(C(F)(F)F)ccc4F)cc3)c12` was tested, and the GI50 was 4460 nM and 3900 nM and the TGI was 12400 nM and 11800 nM.
Work on `Cc1cccc2c1NC(=O)[C@@H](NC(=O)[C@H](CCC(F)(F)F)[C@H](CCC(F)(F)F)C(N)=O)N=C2c1cccc(F)c1` yielded a GI50 of 18500 nM and a TGI greater than 100000 nM.
With `CCOC(=O)Nc1ccc2c3c(cccc13)-c1ccccc1-2` the GI50 was 1370 nM and the TGI was 5210 nM.
Work on `CC(=O)N[C@@H](Cc1ccc(OP(=O)(O)O)cc1)C(=O)N[C@H]1CCC(=O)N2CCC[C@@H](C(=O)NCc3cccc4ccccc34)N2C1=O` yielded a GI50 greater than 25000 nM and a TGI greater than 25000 nM.
With `Nc1n[nH]c2ccc([C@H]3[C@@H]4C5CCC(C5)[C@@H]4c4c(ccc5[nH]ncc45)N3S(=O)(=O)C3CC3)cc12` (some centres not stated) the GI50 was 137 nM and the TGI was 1700 nM.
For `NCCSC1(O)C(=O)c2ccccc2-c2ccccc21` (configuration not stated), the GI50 was 615 nM and the TGI was 2120 nM.
With `CC(C)c1ccc2c(c1)CCC1C(C)(CN)CCCC21C` (configuration not stated) the GI50 was 1430 nM and the TGI was 2760 nM.
Work on `COc1ccc2c(c1)OC(N)=C(C#N)C2c1ccc(F)c(F)c1` (configuration not stated) yielded a GI50 of 222 nM and a TGI of 3560 nM.
With `CC[n+]1c(/C=C/c2ccc(N3CCCC3)cc2)cccc1/C=C/c1ccc(N2CCCC2)cc1` the GI50 was 42.3 nM and the TGI was 196 nM.
In the case of `CCC/C=C/C=C/C(=O)N[C@@H](Cc1cc(F)cc(F)c1)C(=O)N[C@@H]1C(=O)N2CCC[C@H]2C(=O)N2CCCC[C@H]2C(=O)N[C@@H](C)C(=O)N2C[C@H](C)C[C@H]2C(=O)O[C@H]1C` (X7-[Phe(3,5-F2)][aThr]P[Pip]A[Pro(4R-Me)]; ester 2-C), the GI50 is reported as 271 nM and the TGI is reported as 1030 nM.
`CC(C)[C@]12O[C@H]1[C@@H]1O[C@]13[C@]1(O[C@H]1C[C@H]1C4=C(CC[C@@]13C)C(=O)OC4)[C@@H]2OC(=O)OC(C)(C)C` was tested, and the GI50 was 14.7 nM and the TGI was 36.1 nM.
Work on `ClCCN(CCCl)c1ccc(OCc2ccccc2)cc1` yielded a GI50 of 1450 nM and a TGI of 16700 nM.
`COc1ccc(/C=C/C(=O)c2ccc(B(O)O)cc2)cc1O` showed a GI50 of 6230 nM and a TGI of 18400 nM.
With `COc1ccc(-c2nc(Nc3ccc(F)cc3)nc(Nc3ccc4c(c3)nc(C)n4Cc3ccccc3)n2)cc1` the GI50 was 2270 nM and the TGI was 7220 nM.
With `CN1CCN(Cc2ccc(NC(=O)c3cncc(C#Cc4cnc5ccc(OCC6COC6)nn45)c3)cc2C(F)(F)F)CC1` the GI50 was 196 nM and the TGI was 726 nM.
With `COC(=O)CC12CC(NC(=O)c3csc([C@@H](C[C@H](C(C)C)N(C)C(=O)[C@@H](NC(=O)[C@H]4CCCCN4C)C(C)C)OC(C)=O)n3)(C1)C2` the GI50 was 4.38 nM and the TGI was greater than 33300 nM.
With `COc1c(O)cc2c(c1CC=C(C)C)OC(=O)c1c(cc(O)c(CC=C(C)C)c1O)O2` the GI50 was 4190 nM and the TGI was 8210 nM.
For `COc1cccc(Nc2ncnn3ccc(CN4CC[C@@H](N)[C@H](O)C4)c23)c1`, the GI50 was 33.3 nM and 20.1 nM and the TGI was 790 nM and 175 nM.
